Non-standard residues stand in square brackets, D forms with d. Residues, ends and D or L forms follow the SMILES beside them. Groups on a side chain read outwards from the residue. ξ: configuration not given here. *: point of attachment. NMeY = CN[C@@H](Cc1ccc(O)cc1)C(=O)O; Palmitoyl = CCCCCCCCCCCCCCCC(=O)*; αMeF = C[C@](N)(Cc1ccccc1)C(=O)O; ξIva = CCC(C)(N)C(=O)O; Aib = CC(C)(N)C(=O)O
Columns and labels:
[1] = Solubility in 0.1 M phosphate buffer at pH 7; type: physicochemical
Experimental: Peptides (as TFA-salts) were weighed out in a filter unit (Mini-UniPrep Syringieless Filter 0.45 prn. Whatman PVDF), and 0.1 M phosphate buffer at pH 7 was added to achieve 10 mg/mL final peptide concentration. The peptides were dissolved by shaking the filter units horizontally at 600 rpm for 2 hours at room temperature. Samples were then filtered to remove any insoluble particles. Controls were prepared by weighing out the corresponding peptide solid material and dissolving it in an appropriate vehicle (e.g. ACN:H2O) to a final concentration of 1 mg/mL. Both, the control and sample were analyzed by reversed phase chromatography. The area under the peak of the sample was compared to the control and the solubility was calculated based on that ratio. The pH was measured and recorded for each sample.

[2] = Mouse PK after intravenous application; type: in vivo; conditions: in vivo, mean residence time, intravenous 30-60 nmol/kg, male NMRI mice
Procedure, shortened: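 Male NMRI mice (30–40 g) received 30-60 nmol/kg peptide by tail-vein injection, dissolved in 50 mM phosphate buffer (pH 7.4)/3.5% mannitol. Saphenous blood was sampled up to 56 hours post-dose and EDTA plasma analysed by LC-MS. PK parameters came from non-compartmental analysis.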

- solubility [1]: < 1 mg/mL
- MRT [2]: < 1 h
SMILES: CCCCCCCCCCCCCCCC(=O)NCC(=O)NCC(=O)NCC(=O)NCC(=O)NCCCC[C@H](NC(=O)[C@H](CC(=O)O)NC(=O)[C@H](CO)NC(=O)[C@@H](NC(=O)[C@](C)(Cc1ccccc1)NC(=O)[C@@H](NC(=O)CNC(=O)[C@H](CCC(=O)O)NC(=O)C(C)(C)NC(=O)[C@H](Cc1ccc(O)cc1)NC)[C@@H](C)O)[C@@H](C)O)C(=O)N[C@@H](CO)C(=O)N[C@H](C(=O)NC(C)(C)C(=O)N[C@@H](CC(C)C)C(=O)N[C@@H](CCC(=O)O)C(=O)N[C@@H](CCCCN)C(=O)N[C@@H](CCC(N)=O)C(=O)N[C@@H](CCCNC(=N)N)C(=O)N[C@@H](CCC(N)=O)C(=O)NC(C)(CC)C(=O)N[C@@H](CCC(=O)O)C(=O)N[C@@H](Cc1ccccc1)C(=O)N[C@H](C(=O)N[C@@H](CCCNC(=N)N)C(=O)N[C@@H](Cc1c[nH]cn1)C(=O)N[C@@H](CC(C)C)C(=O)N[C@@H](CC(C)C)C(=O)N[C@@H](CC(N)=O)C(=O)N[C@@H](CCCCN)C(=O)NC(C)(C)C(=O)N[C@H](C(=O)N[C@@H](CCCNC(=N)N)C(=O)N[C@@H](CCC(N)=O)C(=O)N[C@@H](CCCNC(=N)N)C(=O)N[C@@H](Cc1ccc(O)cc1)C(N)=O)[C@@H](C)O)C(C)C)[C@@H](C)CC (stereo partly drawn) [Ref. 1, NMeY-Aib-E-G-T-aMeF-T-S-D-K(1,3)-S-I-Aib-L-E-K-Q-R-Q-Iva-E-F-V-R-H-L-L-N-K-Aib-T-R-Q-R-Y-NH2.C16A-G-G-G-G(1,2), reference compound] (H-[NMeY][Aib]EGT[αMeF]TSDK([Gly-Gly-Gly-Gly-Palmitoyl])SI[Aib]LEKQRQ[ξIva]EFVRHLLNK[Aib]TRQRY-NH2)
